For 14 compounds, TGI results are on record in PubChem BioAssay (NCI).

Some test systems named below: OVCAR-4 ovarian; SNB-19 CNS; KM12 colon; SN12C renal; HCT-15 colon; NCI-H23 lung; A498 renal; NCI-H522 lung; CAKI-1 renal.
Holding throughout (test): NCI tumour cell line growth inhibition, 48 h

SMILES strings stand for the structures.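 In this assay, cells in 96-well plates receive the compound at five concentrations for 48 hours. Endpoints are linearly interpolated between the surrounding concentrations. TGI denotes the concentration required for complete inhibition of growth.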

Consider `O=C1C2c3[nH]c4ccccc4c3[C@@H]3CCCCCCCCCCC3C2C(=O)N1c1ccccc1` (stereo partly drawn), for which the TGI in the test on OVCAR-4 ovarian was 57.5 µM; in the test on SNB-19 CNS it was 30.3 µM; in the test on KM12 colon, 42 µM; in the test on SN12C renal, 54 µM; in the test with HCT-15 colon, over 100 µM; with NCI-H23 lung it was 37.5 µM.
On to `C[Si](C)(C)/C=C/CCC(C=O)(CCCl)c1ccccc1` (stereo not drawn), for which the TGI is over 100 µM with SNB-19 CNS; over 100 µM in the test on A498 renal; over 100 µM with KM12 colon; 35.6 µM in the test on NCI-H522 lung; over 100 µM with SN12C renal; 46.1 µM in the test with HCT-15 colon. The compound further displayed a TGI in the test with NCI-H23 lung of over 100 µM.
As to `CC1=NNC(=NCCN(C)C)C/C1=C/c1ccccc1Cl`, the TGI in the test on OVCAR-4 ovarian, with SNB-19 CNS, in the test on A498 renal, in the test on KM12 colon, in the test on SN12C renal and with HCT-15 colon was over 100 µM throughout. For the same compound, the TGI in the test on NCI-H23 lung and in the test with CAKI-1 renal was over 100 µM throughout.
As for `CC(C)[C@@H]1C=C(c2ccccc2)c2ccccc2C1C(C#N)(C#N)C(C)C` (stereo partly drawn), the TGI with OVCAR-4 ovarian, with SNB-19 CNS, in the test on A498 renal, in the test with KM12 colon, in the test with SN12C renal and in the test with HCT-15 colon was over 100 µM each time. This compound also had a TGI in the test on NCI-H23 lung of over 100 µM.
Turning to `Nc1nc2c(ncn2C2OC(CO)C(O)C2N)c(=O)[nH]1` (stereo not drawn), the TGI with SNB-19 CNS, in the test with A498 renal, with KM12 colon, in the test with NCI-H522 lung, in the test with SN12C renal and in the test on HCT-15 colon was over 100 µM each time. For the same compound, the TGI in the test with NCI-H23 lung and in the test with CAKI-1 renal was over 100 µM in each case.
`OCC(O)C(O)c1nn(-c2ccccc2)c2nc3cc(Cl)c(Cl)cc3nc12` (stereo not drawn): the TGI in the test on OVCAR-4 ovarian was 93.5 µM; in the test on SNB-19 CNS, over 100 µM; in the test with KM12 colon it was 81.2 µM; in the test on NCI-H522 lung it was over 100 µM; in the test with SN12C renal, over 100 µM; in the test on HCT-15 colon, over 100 µM. The values for the TGI with NCI-H23 lung and in the test with CAKI-1 renal were over 100 µM and 41.5 µM, respectively.
For `NCCCCCS(=O)(=O)O`, the TGI in the test with OVCAR-4 ovarian, with SNB-19 CNS, in the test on A498 renal, in the test on KM12 colon, in the test on NCI-H522 lung and in the test with SN12C renal was over 100 µM each time. Also, the TGI with HCT-15 colon and in the test with NCI-H23 lung was over 100 µM each time.
In the case of `Cn1cnc([N+](=O)[O-])c1Sc1ccccn1`, the TGI in the test with OVCAR-4 ovarian, with SNB-19 CNS, with A498 renal, in the test on KM12 colon, in the test with NCI-H522 lung and in the test on SN12C renal was over 100 µM throughout. Also, the TGI with NCI-H23 lung and in the test on CAKI-1 renal was over 100 µM in each case.
As for `O=C(CC(=O)N1N=C(c2ccccc2)C(N=Nc2ccc(C(=O)O)cc2)C1=O)Nc1ccc(F)cc1` (stereo not drawn), the TGI was over 100 µM with OVCAR-4 ovarian; over 100 µM in the test with SNB-19 CNS; 81.7 µM in the test on A498 renal; 33.3 µM with NCI-H522 lung; over 100 µM in the test with SN12C renal; over 100 µM with HCT-15 colon. The TGI in the test on NCI-H23 lung was 90.2 µM; in the test with CAKI-1 renal, over 100 µM.
Take `CC(=O)NS(=O)(=O)c1ccc(NC(=O)COC(=O)c2cccc3c(=O)c4ccccc4[nH]c23)cc1`: the TGI in the test with SNB-19 CNS, with KM12 colon, in the test with NCI-H522 lung, with SN12C renal, in the test on HCT-15 colon and in the test on NCI-H23 lung was over 100 µM each time.
As to `COC(=O)/C=C/C(=O)C1C(C(=O)OC)C2(C(=O)OC)CCC1(C(=O)OC)N2` (stereo not drawn), the TGI with OVCAR-4 ovarian, in the test on SNB-19 CNS, in the test with KM12 colon, in the test with HCT-15 colon, in the test on NCI-H23 lung and in the test with CAKI-1 renal was over 100 µM throughout.
Regarding `CC#C[C@@]1(O)CCCC[C@@H]1O`, the TGI in the test on OVCAR-4 ovarian, with SNB-19 CNS, in the test on A498 renal, with KM12 colon, in the test with NCI-H522 lung and in the test with SN12C renal was over 100 µM throughout. Besides, the TGI in the test on HCT-15 colon and in the test on NCI-H23 lung was over 100 µM throughout.
For `c1ccc2c(CNCCCCCCNCc3cccc4ccccc34)cccc2c1`, the TGI with OVCAR-4 ovarian came to 28.9 µM; in the test on A498 renal, 33.6 µM; with KM12 colon it was 15.1 µM; with NCI-H522 lung it was 9.78 µM; in the test with SN12C renal it was 25.3 µM; in the test with HCT-15 colon, 19.8 µM. The TGI in the test with NCI-H23 lung stood at 30.1 µM; in the test with CAKI-1 renal, 20.7 µM.
Turning to `COC(=O)C1=C(OC)c2cc3c(cc2C(c2cc(OC)c(OC)c(OC)c2)C1C(=O)OC)OCO3` (stereo not drawn), the TGI with OVCAR-4 ovarian, in the test with A498 renal, in the test with KM12 colon, in the test on SN12C renal, with HCT-15 colon and in the test on NCI-H23 lung was over 100 µM each time. In addition, in the test on CAKI-1 renal, the TGI is over 100 µM.
